This note sets out measurements from patent US8133998B2, “Bicyclic pyrimidine derivatives as calcium channel blockers” (Zalicus Pharmaceuticals, Ltd., priority 2007, dated 2012).

The structures appear in SMILES notation.

In the first assay the target is T1, human α1G T-type channels (Homo sapiens, UniProt O43497).
T1 construct: expressed in transfected cells; host or cells: HEK 293
T1 sequence (O43497 whole entry): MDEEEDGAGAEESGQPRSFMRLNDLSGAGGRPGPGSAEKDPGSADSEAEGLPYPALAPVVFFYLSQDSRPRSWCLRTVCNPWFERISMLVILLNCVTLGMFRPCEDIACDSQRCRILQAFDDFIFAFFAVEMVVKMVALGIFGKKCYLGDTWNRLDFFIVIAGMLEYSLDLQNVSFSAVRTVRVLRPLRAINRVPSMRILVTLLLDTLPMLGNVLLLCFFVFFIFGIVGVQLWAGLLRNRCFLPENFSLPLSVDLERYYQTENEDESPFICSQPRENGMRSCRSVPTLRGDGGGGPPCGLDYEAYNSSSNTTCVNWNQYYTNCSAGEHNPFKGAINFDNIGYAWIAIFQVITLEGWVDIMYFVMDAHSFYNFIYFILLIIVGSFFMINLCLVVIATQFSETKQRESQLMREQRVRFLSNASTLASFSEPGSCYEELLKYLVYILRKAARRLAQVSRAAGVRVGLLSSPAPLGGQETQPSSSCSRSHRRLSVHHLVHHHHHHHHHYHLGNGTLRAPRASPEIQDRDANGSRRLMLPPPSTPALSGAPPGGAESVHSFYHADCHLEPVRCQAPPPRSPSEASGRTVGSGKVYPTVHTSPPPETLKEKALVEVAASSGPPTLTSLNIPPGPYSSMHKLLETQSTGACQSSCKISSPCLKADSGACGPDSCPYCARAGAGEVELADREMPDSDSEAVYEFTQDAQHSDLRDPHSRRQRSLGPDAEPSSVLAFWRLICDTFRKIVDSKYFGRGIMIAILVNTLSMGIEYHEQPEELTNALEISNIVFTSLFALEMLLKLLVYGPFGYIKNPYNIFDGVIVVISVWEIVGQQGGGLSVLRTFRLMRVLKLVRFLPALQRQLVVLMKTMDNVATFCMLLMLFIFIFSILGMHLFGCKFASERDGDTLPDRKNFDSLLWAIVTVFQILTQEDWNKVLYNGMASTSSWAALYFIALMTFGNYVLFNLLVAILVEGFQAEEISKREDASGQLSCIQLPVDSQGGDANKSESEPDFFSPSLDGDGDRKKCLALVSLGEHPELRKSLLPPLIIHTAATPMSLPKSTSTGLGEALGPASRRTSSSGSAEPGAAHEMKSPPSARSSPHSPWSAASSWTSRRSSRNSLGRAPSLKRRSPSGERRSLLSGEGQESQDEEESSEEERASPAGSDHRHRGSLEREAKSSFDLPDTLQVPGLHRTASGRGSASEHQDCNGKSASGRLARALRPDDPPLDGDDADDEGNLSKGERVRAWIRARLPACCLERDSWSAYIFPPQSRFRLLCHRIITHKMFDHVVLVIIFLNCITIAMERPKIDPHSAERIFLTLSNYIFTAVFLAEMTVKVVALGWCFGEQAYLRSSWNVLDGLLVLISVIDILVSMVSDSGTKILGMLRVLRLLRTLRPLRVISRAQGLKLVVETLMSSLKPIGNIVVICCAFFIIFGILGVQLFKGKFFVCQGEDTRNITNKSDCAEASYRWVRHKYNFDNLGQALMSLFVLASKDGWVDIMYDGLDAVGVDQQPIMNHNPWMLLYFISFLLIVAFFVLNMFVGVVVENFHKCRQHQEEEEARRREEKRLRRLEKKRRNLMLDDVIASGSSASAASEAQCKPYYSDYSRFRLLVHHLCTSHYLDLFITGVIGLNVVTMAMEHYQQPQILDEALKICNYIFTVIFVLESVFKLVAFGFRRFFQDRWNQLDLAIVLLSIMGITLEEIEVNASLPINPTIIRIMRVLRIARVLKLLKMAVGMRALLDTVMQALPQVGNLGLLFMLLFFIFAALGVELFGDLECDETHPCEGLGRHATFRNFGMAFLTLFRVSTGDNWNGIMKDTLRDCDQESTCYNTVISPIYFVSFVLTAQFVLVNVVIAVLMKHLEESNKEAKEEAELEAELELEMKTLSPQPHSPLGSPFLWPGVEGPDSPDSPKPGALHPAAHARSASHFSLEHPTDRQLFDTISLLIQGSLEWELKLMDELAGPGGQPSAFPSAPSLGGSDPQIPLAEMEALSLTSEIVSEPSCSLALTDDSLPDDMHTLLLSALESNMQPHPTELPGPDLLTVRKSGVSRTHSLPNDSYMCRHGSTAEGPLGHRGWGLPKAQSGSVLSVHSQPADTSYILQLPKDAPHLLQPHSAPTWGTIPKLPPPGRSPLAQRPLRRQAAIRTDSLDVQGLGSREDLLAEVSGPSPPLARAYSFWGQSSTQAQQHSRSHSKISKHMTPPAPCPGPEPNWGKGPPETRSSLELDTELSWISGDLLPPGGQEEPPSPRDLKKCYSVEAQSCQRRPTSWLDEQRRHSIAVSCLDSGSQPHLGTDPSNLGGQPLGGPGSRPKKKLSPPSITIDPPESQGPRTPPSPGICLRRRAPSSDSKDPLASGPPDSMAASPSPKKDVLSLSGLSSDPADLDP
The assay is described as follows: T-type calcium channel block, whole cell patch clamp in HEK cells. Format: cell-based. Particulars: HEK cells stably expressing human α1G; measured at 1 μM drug; mainly non-inactivated protocol. Here is the method: (§1) T-type calcium channel blocking activity was assayed in human embryonic kidney cells, HEK 293, stably transfected with the T-type calcium channel subunits. Briefly, cells were cultured in Dulbecco's modified eagle medium (DMEM) supplemented with 10% fetal bovine serum, 200 U/ml penicillin and 0.2 mg/ml streptomycin at 37° C. with 5% CO2. At 85% confluency cells were split with 0.25% trypsin/1 mM EDTA and plated at 10% confluency on glass coverslips. At 12 hours the medium was replaced and the cells stably transfected using a standard calcium phosphate protocol and the appropriate calcium channel cDNA's. Fresh DMEM was supplied and the cells transferred to 28° C./5% CO2. Cells were incubated for 1 to 2 days prior to whole cell recording.
(§2) Standard patch-clamp techniques were employed to identify blockers of T-type currents. Briefly, previously described HEK cell lines stably expressing human α1G, α1H and α1I T-type channels were used for all the recordings (passage #: 4-20, 37° C., 5% CO2). Whole cell patch clamp experiments were performed using an Axopatch 200B amplifier (Axon Instruments, Burlingame, Calif.) linked to a personal computer equipped with pCLAMP software. Data were analyzed using Clampfit (Axon Instruments) and SigmaPlot 4.0 (Jandel Scientific). To obtain T-type currents, plastic dishes containing semi-confluent cells were positioned on the stage of a ZEISS AXIOVERT S100 microscope after replacing the culture medium with external solution (see below). Whole-cell patches were obtained using pipettes (borosilicate glass with filament, O.D.: 1.5 mm, I.D.: 0.86 mm, 10 cm length), fabricated on a SUTTER P-97 puller with resistance values of ˜5 MΩ (see below for internal solution).
(§3) In the non-inactivating protocol, the holding potential is set at −110 mV and with a pre-pulse at −100 mV for 1 second prior to the test pulse at −40 mV for 50 ms. In the inactivation protocol, the pre-pulse is at approximately −85 mV for 1 second, which inactivates about 15% of the T-type channels.
(§4) Test compounds were dissolved in external solution, 0.1-0.01% DMSO. After ˜10 min rest, they were applied by gravity close to the cell using a WPI microfil tubing. The “non-inactivated” pre-pulse was used to examine the resting block of a compound. The “inactivated” protocol was employed to study voltage-dependent block. However, the initial data shown below were mainly obtained using the non-inactivated protocol only. Kd values are shown for various compounds of the invention in Table 4 measured at 1 μM for the drug of interest except for compound 18 which was measured at 200 nM.
In general terms: Patch clamp records ionic current or voltage across a cell membrane.
As a reminder, the Kd is a measure of binding affinity in units of concentration. `Cc1c(C(=O)N2CCN(c3ccc(F)c(Cl)c3)CC2)sc2ncn(CC(=O)N3CC[C@H](F)C3)c(=O)c12` [Compound 137, (S)-6-(4-(3-chloro-4-fluoro-phenyl)piperazine-1-carbonyl)-3-(2-(3-fluoro-pyrrolidin-1-yl)-2-oxoethyl)-5-methyl-thieno[2,3-d]pyrimidin-4(3H)-one]: the Kd is 1800 nM. Same read-out and setting: next, `Cc1c(C(=O)N2CCC(C(F)(F)F)CC2)sc2ncn(CC(=O)Nc3cccc(C(F)(F)F)c3)c(=O)c12` [Compound 63]: 1840 nM; `Cc1c(C(=O)N2CCN(c3ccc(Cl)cc3)CC2)sc2ncn(CCN3CCCC3=O)c(=O)c12` [Compound 94, 6-(4-(4-chlorophenyl)piperazine-1-carbonyl)-5-methyl-3-(2-(2-oxopyrrolidin-1-yl)ethyl)thieno[2,3-d]pyrimidin-4(3H)-one]: 20300 nM. As to `Cc1c(C(=O)N2CC[C@H](F)C2)sc2ncn(CC(=O)Nc3cc(C(F)(F)F)cc(C(F)(F)F)c3)c(=O)c12` [Compound 71, (S)-N-(3,5-bis(trifluoromethyl)phenyl)-2-(5-methyl-4-oxo-6-(3-fluoropyrrolidine-1-carbonyl)thieno[2,3-d]pyrimidin-3(4H)-yl)acetamide], the Kd was more than 74300 nM. Still for that read-out and setting: the result for `CCN(CC(F)(F)F)C(=O)Cn1cnc2sc(C(=O)N3CCN(c4ccccc4F)CC3)c(C)c2c1=O` [Compound 128, N-ethyl-2-(6-(4-(2-fluoro-phenyl)piperazine-1-carbonyl)-5-methyl-4-oxothieno[2,3-d]pyrimidin-3(4H)-yl)-N-(2,2,2-trifluoroethyl)acetamide] reads 3600 nM.

Regarding `Cc1c(C(=O)N2CCN(c3cccc(Cl)c3)CC2)sc2ncn(CC(=O)N3CCCC3)c(=O)c12` [Compound 136, 6-(4-(3-chloro-phenyl)piperazine-1-carbonyl)-5-methyl-3-(2-oxo-2-(pyrrolidin-1-yl)ethyl)thieno[2,3-d]pyrimidin-4(3H)-one], the Kd stood at 1560 nM. Same read-out and setting: next, `Cc1c(C(=O)NC(C)(C)C)sc2ncn(CC(=O)Nc3cc(C(F)(F)F)cc(C(F)(F)F)c3)c(=O)c12` [Compound 68, 3-(2-(3,5-bis(trifluoromethyl)phenylamino)-2-oxoethyl)-N-tert-butyl-5-methyl-4-oxo-3,4-dihydrothieno[2,3-d]pyrimidine-6-carboxamide]: 400 nM. On the same count and under the same terms, next, `Cc1c(C(=O)N2CCCC2)sc2ncn(CC(=O)Nc3cc(C(F)(F)F)cc(C(F)(F)F)c3)c(=O)c12` [Compound 70, N-(3,5-bis(trifluoromethyl)phenyl)-2-(5-methyl-4-oxo-6-(pyrrolidine-1-carbonyl)thieno[2,3-d]pyrimidin-3(4H)-yl)acetamide]: 5310 nM; `CCN(CC)C(=O)Cn1cnc2sc(C(=O)N3CCN(c4ccccc4C(F)(F)F)CC3)c(C)c2c1=O` [Compound 9, N,N-diethyl-2-(5-methyl-4-oxo-6-(4-(2-(trifluoromethyl)phenyl)piperazine-1-carbonyl)thieno[2,3-d]pyrimidin-3(4H)-yl)acetamide]: 3730 nM.

In the case of `CCN(CC)C(=O)Cn1cnc2sc(C(=O)N3CCN(c4ccccc4Cl)CC3)c(C)c2c1=O` [Compound 4, 2-(6-(4-(2-chlorophenyl)piperazine-1-carbonyl)-5-methyl-4-oxothieno[2,3-d]pyrimidin-3(4H)-yl)-N,N-diethylacetamide], the dissociation constant (Kd) amounted to 4120 nM. The same measure, in the same setting: the result for `Cc1c(C(N)=O)sc2ncn(CC(=O)Nc3cc(C(F)(F)F)cc(C(F)(F)F)c3)c(=O)c12` [Compound 67, 3-(2-(3,5-bis(trifluoromethyl)phenylamino)-2-oxoethyl)-5-methyl-4-oxo-3,4-dihydrothieno[2,3-d]pyrimidine-6-carboxamide] reads 2800 nM. Still for that read-out and setting: the result for `O=C(Cn1cnc2ccc(C(=O)N3CCN(c4cccc(Cl)c4)CC3)cc2c1=O)N1CCCC1` [Compound 115, 6-(4-(3-chlorophenyl)piperazine-1-carbonyl)-3-(2-oxo-2-(pyrrolidin-1-yl)ethyl) quinazolin-4(3H)-one] reads 4280 nM; that for `Cc1c(C(=O)N2CCN(c3ccccc3F)CC2)sc2ncn(CCN3CCCC3=O)c(=O)c12` [Compound 95, 6-(4-(2-fluorophenyl)piperazine-1-carbonyl)-5-methyl-3-(2-(2-oxopyrrolidin-1-yl)ethyl)thieno[2,3-d]pyrimidin-4(3H)-one], 2660 nM. Same read-out and setting: next, `Cc1c(C(=O)N2CCN(c3cc(C(F)(F)F)cc(C(F)(F)F)c3)CC2)sc2ncn(CCN3CCCC3=O)c(=O)c12` [Compound 93, 6-(4-(3,5-bis(trifluoromethyl)phenyl)piperazine-1-carbonyl)-5-methyl-3-(2-(2-oxopyrrolidin-1-yl)ethyl)thieno[2,3-d]pyrimidin-4(3H)-one]: 2700 nM.

The target in another assay is T2, human α1H T-type channels (Homo sapiens, UniProt O95180).
T2 construct: expressed in transfected cells; host or cells: HEK 293
T2 sequence (O95180 whole entry): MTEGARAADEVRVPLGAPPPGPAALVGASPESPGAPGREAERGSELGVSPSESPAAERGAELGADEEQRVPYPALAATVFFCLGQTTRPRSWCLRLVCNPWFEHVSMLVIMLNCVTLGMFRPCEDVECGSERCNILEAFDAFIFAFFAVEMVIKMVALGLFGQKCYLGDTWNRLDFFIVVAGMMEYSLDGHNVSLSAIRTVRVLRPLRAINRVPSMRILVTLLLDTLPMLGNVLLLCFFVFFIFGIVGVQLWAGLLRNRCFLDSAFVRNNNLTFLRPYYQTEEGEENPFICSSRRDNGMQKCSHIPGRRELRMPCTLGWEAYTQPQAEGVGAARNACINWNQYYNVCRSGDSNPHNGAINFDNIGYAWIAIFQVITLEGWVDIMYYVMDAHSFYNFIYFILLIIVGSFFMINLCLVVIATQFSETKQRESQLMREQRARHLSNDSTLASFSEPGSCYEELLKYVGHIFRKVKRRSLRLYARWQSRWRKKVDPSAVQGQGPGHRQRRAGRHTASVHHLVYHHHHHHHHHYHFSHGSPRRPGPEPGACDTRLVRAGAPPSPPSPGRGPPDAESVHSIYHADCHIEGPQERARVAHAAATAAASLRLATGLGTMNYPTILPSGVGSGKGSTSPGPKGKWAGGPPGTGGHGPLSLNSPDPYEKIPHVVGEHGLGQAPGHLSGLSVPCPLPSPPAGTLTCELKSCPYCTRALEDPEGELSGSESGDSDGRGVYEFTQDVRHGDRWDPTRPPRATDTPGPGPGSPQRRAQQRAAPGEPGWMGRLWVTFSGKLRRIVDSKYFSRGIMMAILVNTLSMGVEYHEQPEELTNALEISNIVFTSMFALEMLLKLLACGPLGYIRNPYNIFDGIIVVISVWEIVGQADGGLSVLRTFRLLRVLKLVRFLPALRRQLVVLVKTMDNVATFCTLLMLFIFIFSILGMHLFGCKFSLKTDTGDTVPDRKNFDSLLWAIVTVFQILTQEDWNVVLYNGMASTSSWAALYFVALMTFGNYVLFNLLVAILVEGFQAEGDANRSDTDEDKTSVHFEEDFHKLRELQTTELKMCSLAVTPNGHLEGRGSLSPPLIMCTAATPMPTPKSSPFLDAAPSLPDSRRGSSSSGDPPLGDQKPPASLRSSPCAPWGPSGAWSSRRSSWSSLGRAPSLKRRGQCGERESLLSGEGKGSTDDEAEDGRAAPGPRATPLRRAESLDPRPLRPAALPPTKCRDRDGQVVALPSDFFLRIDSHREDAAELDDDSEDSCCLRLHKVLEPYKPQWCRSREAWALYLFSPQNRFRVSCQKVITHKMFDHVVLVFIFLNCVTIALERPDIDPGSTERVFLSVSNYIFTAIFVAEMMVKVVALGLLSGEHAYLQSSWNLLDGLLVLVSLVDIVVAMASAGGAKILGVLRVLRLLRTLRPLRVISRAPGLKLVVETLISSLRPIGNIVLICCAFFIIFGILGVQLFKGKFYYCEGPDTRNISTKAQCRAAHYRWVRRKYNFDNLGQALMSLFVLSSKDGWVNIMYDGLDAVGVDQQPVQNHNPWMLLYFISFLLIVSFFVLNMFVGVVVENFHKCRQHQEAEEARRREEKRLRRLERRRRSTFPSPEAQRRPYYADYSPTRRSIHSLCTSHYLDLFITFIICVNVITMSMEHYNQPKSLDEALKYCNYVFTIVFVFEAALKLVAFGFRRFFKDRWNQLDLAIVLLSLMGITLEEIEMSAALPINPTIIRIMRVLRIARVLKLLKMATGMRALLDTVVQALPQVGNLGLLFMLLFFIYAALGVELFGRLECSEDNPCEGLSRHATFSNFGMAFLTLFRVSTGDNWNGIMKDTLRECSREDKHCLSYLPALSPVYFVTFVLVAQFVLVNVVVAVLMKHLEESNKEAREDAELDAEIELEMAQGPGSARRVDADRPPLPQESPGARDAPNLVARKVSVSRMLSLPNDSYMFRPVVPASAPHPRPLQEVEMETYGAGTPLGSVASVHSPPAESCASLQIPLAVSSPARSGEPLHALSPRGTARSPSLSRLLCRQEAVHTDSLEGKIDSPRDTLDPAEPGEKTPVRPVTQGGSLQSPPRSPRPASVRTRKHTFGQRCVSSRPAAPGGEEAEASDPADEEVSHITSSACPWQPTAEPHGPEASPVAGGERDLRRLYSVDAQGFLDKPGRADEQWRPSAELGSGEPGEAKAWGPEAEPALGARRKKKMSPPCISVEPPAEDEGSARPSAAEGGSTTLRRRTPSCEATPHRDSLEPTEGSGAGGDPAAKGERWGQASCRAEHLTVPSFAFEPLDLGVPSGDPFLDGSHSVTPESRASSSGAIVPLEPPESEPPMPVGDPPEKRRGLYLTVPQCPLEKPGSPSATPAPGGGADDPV
The description is as above. It is filed as cell-based. Particulars: HEK cells stably expressing human α1H; measured at 1 μM drug; mainly non-inactivated protocol. Here is the method: as §1, §2, §3, §4
Turning to `Cc1c(C(=O)N2CCN(c3ccccc3)CC2)sc2ncn(CC(=O)NC3CCCC3)c(=O)c12` [Compound 41, N-cyclopentyl-2-(5-methyl-4-oxo-6-(4-phenylpiperazine-1-carbonyl)thieno[2,3-d]pyrimidin-3(4H)-yl)acetamide], the Kd was determined as 830 nM. Consider `Cc1c(C(=O)N2CCN(c3ccccc3)CC2)sc2ncn(C(C)C(=O)NC3CCCC3)c(=O)c12` (centres unmarked) [Compound 46, N-cyclopentyl-2-(5-methyl-4-oxo-6-(4-phenylpiperazine-1-carbonyl)thieno[2,3-d]pyrimidin-3(4H)-yl)propanamide], for which the Kd was 520 nM.

On to `Cc1c(C(=O)N2CCN(c3ccccc3)CC2)sc2ncn(CC(=O)NC(C)(C)C)c(=O)c12` [Compound 13, N-tert-butyl-2-(5-methyl-4-oxo-6-(4-phenylpiperazine-1-carbonyl)thieno[2,3-d]pyrimidin-3(4H)-yl)acetamide], for which the Kd was determined as 2140 nM. Consider `Cc1c(C(=O)N2CCN(c3ccc(F)c(Cl)c3)CC2)sc2ncn(CC(=O)N3CC[C@H](F)C3)c(=O)c12` [Compound 137, (S)-6-(4-(3-chloro-4-fluoro-phenyl)piperazine-1-carbonyl)-3-(2-(3-fluoro-pyrrolidin-1-yl)-2-oxoethyl)-5-methyl-thieno[2,3-d]pyrimidin-4(3H)-one], for which the dissociation constant (Kd) is more than 8440 nM. On to `Cc1c(C(=O)N2CCN(c3ccccc3F)CC2)sc2ncn(C(C)C(=O)NC3CCCCC3)c(=O)c12` (centres unmarked) [Compound 34, N-cyclohexyl-2-(6-(4-(2-fluorophenyl)piperazine-1-carbonyl)-5-methyl-4-oxothieno[2,3-d]pyrimidin-3(4H)-yl)propanamide], for which the Kd came out at 440 nM.

Regarding `Cc1c(C(=O)N2CCN(c3ccccc3F)CC2)sc2ncn(CC(=O)Nc3ccccc3)c(=O)c12` [Compound 51, 2-(6-(4-(2-fluorophenyl)piperazine-1-carbonyl)-5-methyl-4-oxothieno[2,3-d]pyrimidin-3(4H)-yl)-N-phenylacetamide], the Kd was 570 nM. Same read-out and setting: the result for `Cc1c(C(=O)N2CCN(c3cccc([N+](=O)[O-])c3)CC2)sc2ncn(CC(=O)NC3CCCCC3)c(=O)c12` [Compound 29, N-cyclohexyl-2-(5-methyl-6-(4-(3-nitrophenyl)piperazine-1-carbonyl)-4-oxothieno[2,3-d]pyrimidin-3(4H)-yl)acetamide] reads 950 nM; that for `Cc1c(C(=O)N2CCN(c3ccc(F)cc3)CC2)sc2ncn(CC(=O)N3CC[C@H](F)C3)c(=O)c12` [Compound 91, (S)-6-(4-(4-fluorophenyl)-piperazine-1-carbonyl)-3-(2-(3-fluoropyrrolidin-1-yl)-2-oxoethyl)-5-methylthieno[2,3-d]pyrimidin-4(3H)-one], 6310 nM; that for `Cc1c(C(=O)N2CCN(c3ccccc3F)CC2)sc2ncn(CC(=O)N3CCC(F)(F)C3)c(=O)c12` [Compound 79, 3-(2-(3,3-difluoropyrrolidin-1-yl)-2-oxoethyl)-6-(4-(2-fluorophenyl)piperazine-1-carbonyl)-5-methylthieno[2,3-d]pyrimidin-4(3H)-one], 4640 nM. Regarding `Cc1c(C(=O)N2CCN(c3ccccc3F)CC2)sc2ncn(C(C)C(=O)NC3CCCC3)c(=O)c12` (centres unmarked) [Compound 47, N-cyclopentyl-2-(6-(4-(2-fluorophenyl)piperazine-1-carbonyl)-5-methyl-4-oxothieno[2,3-d]pyrimidin-3(4H)-yl)propanamide], the Kd was found to be 560 nM. The same measure, in the same setting: next, `CCN(CC)C(=O)Cn1cnc2sc(C(=O)N3CCN(c4cccc(F)c4)CC3)c(C)c2c1=O` [Compound 7, N,N-diethyl-2-(6-(4-(3-fluorophenyl)piperazine-1-carbonyl)-5-methyl-4-oxothieno[2,3-d]pyrimidin-3(4H)-yl)acetamide]: 1140 nM; `Cc1c(C(=O)N2CCN(c3ccc(F)cc3)CC2)sc2ncn(CC(=O)N3CCC(F)(F)C3)c(=O)c12` [Compound 90]: 2440 nM.
